This passage reports carcinogen call results from PubChem BioAssay AID1259411 (Chemical Carcinogenesis Research Information System (CCRIS), 2018).

Calls of active or inactive are those of the source. No rule for the calls is given here.

The series has as its system rodent carcinogenicity bioassays, tumor incidence. Kind of series: CCRIS carcinogenicity studies. The essentials:
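Archive of carcinogenicity, mutagenicity, tumor promotion and tumor inhibition results drawn from journals, NCI reports and other sources, expert-reviewed; covers 1985-2011 and is no longer updated.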

Turning to `COc1cc(-c2ccc(N)c(OC)c2)ccc1N`, the carcinogen call is, setting by setting: (Species: HAMSTER, Route: ORAL, Tumor Site: Type of Lesion: FORESTOMACH) “active; positive”; (Species: MOUSE, Strain/Sex: BALB/FEMALE, Route: ORAL, Dose: 0, 20, 40, 80, 160, 315, 630 PPM IN DRINKING WATER (STUDY DURATION: 112 WK), Dose: 0, 20, 40, 80, 160, 315, 630 PPM IN DRINKING WATER (STUDY DURATION: 112 WK)) “inactive; negative”; (Species: MOUSE, Strain/Sex: BALB/MALE, Route: ORAL, Dose: 0, 20, 40, 80, 160, 315, 630 PPM IN DRINKING WATER (STUDY DURATION: 112 WK), Dose: 0, 20, 40, 80, 160, 315, 630 PPM IN DRINKING WATER (STUDY DURATION: 112 WK)) “inactive; negative”; (Species: RAT, Route: ORAL, Tumor Site: Type of Lesion: EAR (ZYMBAL GLAND), URINARY BLADDER, INTESTINES, INTEGUMENTARY SYSTEM (SKIN), Tumor Site: Type of Lesion: EAR (ZYMBAL GLAND), URINARY BLADDER, INTESTINES, INTEGUMENTARY SYSTEM (SKIN)) “active; positive”; (Species: RAT, Strain/Sex: F344/FEMALE, Route: ORAL, Dose: 0, 80, 170, 330 PPM IN DRINKING WATER FOR 21 MO ( STUDY DURATION: 93 WK), Dose: 0, 80, 170, 330 PPM IN DRINKING WATER FOR 21 MO ( STUDY DURATION: 93 WK), Tumor Site: Type of Lesion: CLITORAL GLAND: ADENOMA OR CARCINOMA, LARGE INTESTINE: ADENOMATOUS POLYP OR ADENOCARCINOMA, LIVER: NEOPLASTIC NODULE OR, Tumor Site: Type of Lesion: CLITORAL GLAND: ADENOMA OR CARCINOMA, LARGE INTESTINE: ADENOMATOUS POLYP OR ADENOCARCINOMA, LIVER: NEOPLASTIC NODULE OR) “active; positive”; (Species: RAT, Strain/Sex: F344/FEMALE, Route: ORAL, Dose: 0, 80, 170, 330 PPM IN DRINKING WATER FOR 21 MO (STUDY DURATION: 21 MO), Dose: 0, 80, 170, 330 PPM IN DRINKING WATER FOR 21 MO (STUDY DURATION: 21 MO), Tumor Site: Type of Lesion: ZYMBAL GLAND: ADENOMA, CARCINOMA, CLITORAL GLAND: ADENOMA, CARCINOMA, LARGE INTESTINE: ADENOMATOUS POLYP OR ADENOCARCINO, Tumor Site: Type of Lesion: ZYMBAL GLAND: ADENOMA, CARCINOMA, CLITORAL GLAND: ADENOMA, CARCINOMA, LARGE INTESTINE: ADENOMATOUS POLYP OR ADENOCARCINO) “active; positive”. Moreover, the carcinogen call (Species: RAT, Strain/Sex: F344/MALE, Route: ORAL, Dose: 0, 80, 170, 330 PPM IN DRINKING WATER FOR 21 MO (STUDY DURATION: 21 MO), Dose: 0, 80, 170, 330 PPM IN DRINKING WATER FOR 21 MO (STUDY DURATION: 21 MO), Tumor Site: Type of Lesion: ZYMBAL GLAND: ADENOMA, CARCINOMA, PREPUTIAL GLAND: CARCINOMA, SKIN: BASAL CELL ADENOMA, BASAL CELL CARCINOMA, SQUAMOUS C, Tumor Site: Type of Lesion: ZYMBAL GLAND: ADENOMA, CARCINOMA, PREPUTIAL GLAND: CARCINOMA, SKIN: BASAL CELL ADENOMA, BASAL CELL CARCINOMA, SQUAMOUS C) was “active; positive” and the carcinogen call (Species: RAT, Strain/Sex: F344/MALE, Route: ORAL, Dose: 0, 80, 170, 330 PPM IN DRINKING WATER FOR 21 MO (STUDY DURATION: 93 WK), Dose: 0, 80, 170, 330 PPM IN DRINKING WATER FOR 21 MO (STUDY DURATION: 93 WK), Tumor Site: Type of Lesion: BRAIN: MALIGNANT ASTROCYTOMA, PREPUTIAL GLAND: CARCINOMA, ADENOMA OR CARCINOMA, LARGE INTESTINE: ADENOMATOUS POLYP OR AD, Tumor Site: Type of Lesion: BRAIN: MALIGNANT ASTROCYTOMA, PREPUTIAL GLAND: CARCINOMA, ADENOMA OR CARCINOMA, LARGE INTESTINE: ADENOMATOUS POLYP OR AD) is “active; positive”.

For `C/[N+]([O-])=N/CO[C@@H]1O[C@H](CO)[C@@H](O)[C@H](O)[C@H]1O`, the carcinogen call is “active; positive” (Species: GUINEA PIG, Route: ORAL, Dose: 0, 5% IN DIET OF CYCAD MEAL, 2-3 5-D PERIODS, Tumor Site: Type of Lesion: LIVER: HEPATOCELLULAR CARCINOMA, BILE DUCT); “active; positive” (Species: GUINEA PIG, Route: ORAL, Tumor Site: Type of Lesion: LIVER, BILE DUCT); “active; positive” (Species: HAMSTER, Route: GAVAGE, Dose: 0.1, 0.15 MG/G BW, SINGLE DOSE, Tumor Site: Type of Lesion: LIVER: HEPATOCELLULAR ADENOMA, BILE DUCT: CARCINOMA, HEMANGIOENDOTHELIAL SARCOMA, LUNG: ADENOMA, INTESTINES, KIDNEY: CAR, Tumor Site: Type of Lesion: LIVER: HEPATOCELLULAR ADENOMA, BILE DUCT: CARCINOMA, HEMANGIOENDOTHELIAL SARCOMA, LUNG: ADENOMA, INTESTINES, KIDNEY: CAR); “active; positive” (Species: HAMSTER, Route: ORAL, Tumor Site: Type of Lesion: LIVER, LUNG, INTESTINES, KIDNEY, Tumor Site: Type of Lesion: LIVER, LUNG, INTESTINES, KIDNEY); “active; positive” (Species: HAMSTER, Route: SUBCUTANEOUS, Tumor Site: Type of Lesion: LIVER); “active; positive” (Species: MONKEY, Strain/Sex: AFRICAN GREEN, Route: ORAL, Dose: 0, 3% (50-75 MG/KG) IN DIET OF CRUDE CYCAD MEAL, 5 D/WK FOR UP TO 11 YR, Tumor Site: Type of Lesion: UNSPECIFIED: NEOPLASM). In addition, the carcinogen call reads like this: (Species: MONKEY, Strain/Sex: CYNOMOLGUS, Route: ORAL, Dose: 0, 3% (50-75 MG/KG) IN DIET OF CRUDE CYCAD MEAL, 5 D/WK FOR UP TO 11 YR, Tumor Site: Type of Lesion: UNSPECIFIED: NEOPLASM) “active; positive”; (Species: MONKEY, Strain/Sex: RHESUS, Route: ORAL, Dose: 0, 3% (50-75 MG/KG) IN DIET OF CRUDE CYCAD MEAL, 5 D/WK FOR UP TO 11 YR, Tumor Site: Type of Lesion: UNSPECIFIED: NEOPLASM) “active; positive”; (Species: MOUSE, Route: SUBCUTANEOUS, Tumor Site: Type of Lesion: LIVER, LUNG) “active; positive”; (Species: RABBIT, Route: ORAL, Tumor Site: Type of Lesion: LIVER) “active; positive”; (Species: RAT, Route: ORAL, Tumor Site: Type of Lesion: INTESTINES, KIDNEY, LIVER, Tumor Site: Type of Lesion: INTESTINES, KIDNEY, LIVER) “active; positive”; (Species: RAT, Route: SUBCUTANEOUS, Tumor Site: Type of Lesion: KIDNEY, INTESTINES, LIVER, Tumor Site: Type of Lesion: KIDNEY, INTESTINES, LIVER) “active; positive”. In addition, the carcinogen call runs as follows: (Species: RAT, Strain/Sex: SPRAGUE-DAWLEY/MALE,FEMALE, Route: GAVAGE, Dose: 3 ML/KG BW CYCAD EXTRACT, 1/WK FOR 12 WK, Tumor Site: Type of Lesion: INTESTINES) “active; positive”; (Species: RAT, Strain/Sex: SPRAGUE-DAWLEY/MALE,FEMALE, Route: RECTAL, Dose: 50 MG/KG BW INTO INTESTINE 1/WK FOR 12 WK, Tumor Site: Type of Lesion: INTESTINES) “active; positive”; (Species: RAT, Strain/Sex: SPRAGUE-DAWLEY/MALE, Route: GAVAGE, Dose: 80, 250 MG/KG, SINGLE DOSE, Tumor Site: Type of Lesion: INTESTINES (COLON OR RECTUM), INTESTINES (JEJUNUM OR ILEUM), DUODENUM, Tumor Site: Type of Lesion: INTESTINES (COLON OR RECTUM), INTESTINES (JEJUNUM OR ILEUM), DUODENUM) “active; positive”; (Species: RAT, Strain/Sex: SPRAGUE-DAWLEY/MALE, Route: GAVAGE, Dose: 80 MG/KG, 1/WK FOR 15 WK, Tumor Site: Type of Lesion: INTESTINES (COLON OR RECTUM), INTESTINES (JEJUNUM OR ILEUM)) “active; positive”.

For the compound `CC(C)OC(=O)Nc1cccc(Cl)c1`, the carcinogen call by setting is: (Species: Mouse, Strain/Sex: CD-1/Female (50/group), Route: Oral, Dose: 0, 100, 500, 1,000 mg/kg/day in diet for 18 mo, Dose: 0, 100, 500, 1,000 mg/kg/day in diet for 18 mo) “inactive; negative (study details not given in source; purity 96.2%)”; (Species: Mouse, Strain/Sex: CD-1/Male (50/group), Route: Oral, Dose: 0, 100, 500, 1,000 mg/kg/day in diet for 18 mo, Dose: 0, 100, 500, 1,000 mg/kg/day in diet for 18 mo) “inactive; negative (study details not given in source; purity 96.2%)”; (Species: Rat, Strain/Sex: Sprague-Dawley/Female (50/group), Route: Oral, Dose: 0, 30, 100, 500, 1,000 mg/kg/day in diet for 24 mo, Dose: 0, 30, 100, 500, 1,000 mg/kg/day in diet for 24 mo) “inactive; negative (study details not given in source; purity 96.2%)”; (Species: Rat, Strain/Sex: Sprague-Dawley/Male (50/group), Route: Oral, Dose: 0, 30, 100, 500, 1,000 mg/kg/day in diet for 24 mo, Dose: 0, 30, 100, 500, 1,000 mg/kg/day in diet for 24 mo, Tumor Site: Type of Lesion: Testis: Interstitial cell tumors (1, 4, 2, 4, 9; Significant at highest dose)) “active; positive (study details not given in source; purity 96.2%)”.
